Experiments:
trypsin = target: T1, trypsin (Bos taurus, UniProt P00760); test: inhibitory activity against trypsin; type: biochemical
T1 sequence (P00760 24-246): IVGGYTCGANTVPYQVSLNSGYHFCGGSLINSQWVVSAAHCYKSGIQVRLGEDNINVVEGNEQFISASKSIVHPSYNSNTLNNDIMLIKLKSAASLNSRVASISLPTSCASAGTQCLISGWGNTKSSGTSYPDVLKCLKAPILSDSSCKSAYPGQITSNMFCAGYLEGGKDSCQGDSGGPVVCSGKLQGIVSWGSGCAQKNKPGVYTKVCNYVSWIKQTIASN

chymotrypsin = chymotrypsin (Bos taurus, UniProt P00766); test: inhibitory activity against chymotrypsin; type: biochemical
[1] = system: metallo proteinase produced by Pseudomonas aeruginosa; test: inhibitory activity against metallo proteinase of Pseudomonas aeruginosa (casein digestion); type: biochemical
Method: (§1) A mixture of 0.25 ml of sample solution in 0.05 M phosphate buffer at pH 7.5 and 0.25 ml of thermolysin solution (20 μg/ml in the same buffer was incubated for 10 minutes at 37° C. The mixture was added with 1.5 ml of 1.33% Hammarsten casein solution in 0.1M phosphate buffer (pH 7.0) and incubated for 10 minutes at 37° C. By the addition of 2 ml of 0.44 M trichloroacetic acid the reaction was stopped. After standing for 30 minutes at 37° C., the reaction mixture was filtered. To 1.0 ml of the filtrate 5 ml of 0.55 M Na2 CO3 and 1 ml of 2 times diluted Folin-Ciocaltean reagent were added. After standing for 60 minutes at 37° C., the absorbance (Is) was measured at 660 mμ. The blank value (Ib) was taken by carrying out the reaction using 0.25 ml of 0.05M phosphate buffer (pH 7.5) instead of thermolysin. […] Inhibition rate against enzyme activity is calculated by the following equation: [formula] Now, inhibitory activity against metallo proteinase produced by Pseudomonas aeruginosa can be measured in the same manner as above wherein amounts of enzyme used is established so as to have following value. A value of (Es-Eb) according to method for measuring inhibitory activity is 0.6 wherein cell length used for the measurement of absorbance is 1 cm.

[2] = system: metallo proteinase produced by Aspergillus oryzae; test: inhibitory activity against metallo proteinase of Aspergillus oryzae; type: biochemical
papain = target: T2, papain (Carica papaya, UniProt P00784); test: inhibitory activity against papain; type: biochemical
T2 sequence (P00784 134-345): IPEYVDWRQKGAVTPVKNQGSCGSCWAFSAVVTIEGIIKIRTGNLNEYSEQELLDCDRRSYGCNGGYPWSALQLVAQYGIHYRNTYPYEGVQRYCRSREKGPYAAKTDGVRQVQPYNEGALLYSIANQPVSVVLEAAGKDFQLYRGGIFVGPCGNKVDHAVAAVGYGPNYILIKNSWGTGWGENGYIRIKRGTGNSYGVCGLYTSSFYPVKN

Solubility = type: physicochemical
subtilis = test: inhibitory activity against subtilis; type: biochemical
pepsin = pepsin (Sus scrofa, UniProt P00791); test: inhibitory activity against pepsin; type: biochemical
pepsin, sequence (P00791 60-385): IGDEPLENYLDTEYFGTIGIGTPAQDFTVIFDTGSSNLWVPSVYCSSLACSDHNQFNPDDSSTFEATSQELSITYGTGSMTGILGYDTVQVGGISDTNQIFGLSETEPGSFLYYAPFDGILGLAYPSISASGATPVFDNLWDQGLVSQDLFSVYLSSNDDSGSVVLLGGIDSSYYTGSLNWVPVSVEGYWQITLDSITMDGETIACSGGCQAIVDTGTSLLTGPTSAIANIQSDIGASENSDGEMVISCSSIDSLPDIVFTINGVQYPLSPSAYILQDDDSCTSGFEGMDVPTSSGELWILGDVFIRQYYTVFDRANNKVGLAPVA

thermolysin = thermolysin (Bacillus thermoproteolyticus, UniProt P00800); test: inhibitory activity against thermolysin (casein digestion, Folin reagent); type: biochemical, genus Bacillus
thermolysin, sequence (P00800 233-548): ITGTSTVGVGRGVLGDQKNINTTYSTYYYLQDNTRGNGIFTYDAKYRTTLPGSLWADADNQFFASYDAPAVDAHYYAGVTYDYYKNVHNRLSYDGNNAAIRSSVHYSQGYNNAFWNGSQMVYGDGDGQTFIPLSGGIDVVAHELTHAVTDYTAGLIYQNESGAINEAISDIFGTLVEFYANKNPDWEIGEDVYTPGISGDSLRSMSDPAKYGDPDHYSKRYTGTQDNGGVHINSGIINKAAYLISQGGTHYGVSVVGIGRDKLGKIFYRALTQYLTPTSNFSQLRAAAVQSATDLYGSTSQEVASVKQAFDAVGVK
Method: as §1

[3] = Stability in aqueous solution; type: physicochemical
[4] = amount of compound in the assay

With `CC(C)C[C@H](NP(=O)(O)OC1O[C@@H](C)[C@@H](O)[C@@H](O)[C@H]1O)C(=O)N[C@@H](Cc1c[nH]c2ccccc12)C(=O)O` (stereo partly drawn) [novel tryptophan derivative, N-(6-deoxy-L-talosyloxy hydroxyphosphinyl)-L-leucyl-L-tryptophan] the “inhibiting activity (in words)” value (trypsin) was “does not inhibit”, the “inhibiting activity (in words)” value (chymotrypsin) was “does not inhibit” and the “inhibiting activity (in words)” value [1] was “strongly inhibits”. For the same compound, the “Amount necessary for inhibiting 50% of the enzyme activity” value [1, 4] was 4 µg, the “inhibiting activity (in words)” value [2] was “inhibits” and the “inhibiting activity (in words)” value (papain) was “does not inhibit”. The Solubility (Solubility; benzene) was “Insoluble”, the Solubility (Solubility; chloroform) was “Insoluble” and the Solubility (Solubility; ethanol) was “Soluble”. The Solubility (Solubility; ether) was “Insoluble”, the Solubility (Solubility; hexane) was “Insoluble” and the Solubility (Solubility; methanol) was “Soluble”. The Solubility (Solubility; water) was “Soluble”, the “inhibiting activity (in words)” value (subtilis) was “does not inhibit” and the “inhibiting activity (in words)” value (pepsin) was “does not inhibit”. The “inhibiting activity (in words)” value (thermolysin) was “strongly inhibits”, the “Amount necessary for inhibiting 50% of the enzyme activity” value (thermolysin; [4]) was 0.35 µg and the Stability ([3]; acidic aqueous solution) was “Unstable”. For the same compound, the “Stability (remaining activity)” value ([3]; standing for 24 hours at pH 1) was “Activity is lost completely” and the Stability ([3]; weak acidic, neutral, or alkaline aqueous solution) was “Stable”.
